Source: US11667630B2, “Nitrogen-containing 6-membered cyclic compound” (Asahi Kasei Pharma Corporation, priority 2017, dated 2023)

Key:
rat femur = test: Neo-osteogenesis action in rat femur; assay type: in vivo; details: female SD rats, one week after administration; for Bone mineral content of femur 1/3 center region (mg) Left femur (administered with compound): 100 μg test compound in in situ-solidified gel solution injected between quadriceps and periosteum; for Bone mineral content of femur 1/3 center region (mg) Right femur (no administration of compound): contralateral femur, 100 μg test compound given at left femur
Description: Eight weeks old female SD rats (Charles River Japan) were fixed in the side lying position under triple anesthesia (medetomidine hydrochloride, midazolam, and butorphanol tartrate). After hair of the left femoral region was shaved with a hair clipper, and disinfection treatment was performed with 70% ethanol, an in situ-solidified gel solution of a test compound, specifically, a test compound dissolved in poly(lactic-co-glycolic acid) (RESOMER RG502H, produced by Evonik Industries)/poly(lactic-co-glycolic acid)-polyethylene glycol block copolymer (5050 DLG mPEG 5000, produced by Lakeshore Biomaterials)/N-methyl-2-pyrroridone (produced by Wako) (weight ratio 47%/3%/50%), was filled in a 1-mL syringe, a 21G injection needle was attached to the syringe, and the needle was transdermally stabbed from the quadriceps to the periosteum near the center of the femoral diaphyseal. Then, 100 μg as the amount of the test compound, or 50 μL as the administration volume of the solution was injected between the quadriceps and the periosteum, and the injection needle was drawn out. To the rats of the control group, the aforementioned in situ-solidified gel solution alone was administered. One week after the administration of the drug solution, the triple anesthesia was given to the animals, and they were fixed in the supine position, and euthanized by bleeding. […], circumferential tissues such as muscles were removed, the bone mineral content of the whole femur was measured by using a bone mineral analyzer DCS-600EX (produced by ALOKA), then it was divided into three portions along the long axis, and the bone mineral content of the center part (diaphysis) was evaluated. The test was performed with the groups each consisting of 6 animals.

human EP4 receptor = human EP4 receptor (Homo sapiens, UniProt P35408); test: Measurement of EP4 agonist activity (cAMP production); assay type: cell-based; set-up: expressed in transfected cells; host or cells: HEK293; details: cAMP production in HEK293 cells stably expressing human EP4 receptor; average values where measured two or more times
Chain of human EP4 receptor (P35408 whole entry): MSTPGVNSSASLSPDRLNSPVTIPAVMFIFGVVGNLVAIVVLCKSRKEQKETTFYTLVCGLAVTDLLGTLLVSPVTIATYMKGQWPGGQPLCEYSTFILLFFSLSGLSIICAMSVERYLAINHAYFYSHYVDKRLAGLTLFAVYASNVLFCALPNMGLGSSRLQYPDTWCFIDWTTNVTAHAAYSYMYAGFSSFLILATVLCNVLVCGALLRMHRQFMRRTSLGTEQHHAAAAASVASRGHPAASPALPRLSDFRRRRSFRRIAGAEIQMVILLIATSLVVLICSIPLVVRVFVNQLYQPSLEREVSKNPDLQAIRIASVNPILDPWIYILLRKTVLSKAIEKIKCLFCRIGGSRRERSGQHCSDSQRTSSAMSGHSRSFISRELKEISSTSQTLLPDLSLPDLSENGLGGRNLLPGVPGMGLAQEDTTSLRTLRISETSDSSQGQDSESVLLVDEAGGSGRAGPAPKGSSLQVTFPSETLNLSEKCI
Description: In order to investigate EP4 receptor agonist activity of the compounds of the present invention, production of cAMP was measured in HEK293 cells that were made to stably express the human EP4 receptor.
By using Refseq Database, prostaglandin E receptor was searched for. As a result, gene information of human EP4 (NM_000958) receptor was obtained. On the basis of this sequence information, the human EP4 receptor gene was cloned by PCR in a conventional manner using human cDNA as the template, and HEK293 cells that were made to stably express the human EP4 receptor were established. When cryopreserved cells of this strain were thawed and used, cells subcultured three times or more within a certain period of time (about 1 to 2 weeks) by using Dulbecco's Modified Eagle's Medium (Dulbecco's Modified Eagle's Medium may be henceforth abbreviated as DMEM) containing 10% FBS, 50 units each of penicillin and streptomycin were used. The subcultured cells were inoculated in wells of a poly-D-lysine-coated 96-well plate at a density of 2×10^4 to 2.5×10^4 cells/well, and cultured for one day. The medium in the wells was removed by suction, then DMEM (80 μL) was added to each well, and incubation was performed at 37° C. for 15 minutes. […] The reaction was allowed at 37° C. for 30 minutes, then the medium was removed by suction, Assay/Lysis Buffer (100 μL) contained in cAMP Screen Kit (produced by Applied Biosystems) was added to terminate the reaction. Then, the reaction mixture was incubated at 37° C. for 30 minutes to prepare a sample for quantification of cAMP, and the amount of cAMP in the sample was quantified according to the method indicated in cAMP Screen Kit. By non-linear regression of the compound concentration and the amount of cAMP, the concentration of the compound required for increasing cAMP to 50% of the maximum increase (EC50 value) was calculated by using the Kaleida Graph.

Compound | Bone mineral content of femur 1/3 center region (mg) Left femur (administered with compound) (rat femur) [mg] | Bone mineral content of femur 1/3 center region (mg) Right femur (no administration of compound) (rat femur) [mg] | EC50 (human EP4 receptor) [nM]
O=C(O)c1ccc(CCN2C(=O)SCCN2CCC(O)Cc2cccc(C#Cc3cccs3)c2)s1 (centres unmarked) [Example 3, 5-(2-(4-(3-Hydroxy-4-(3-(thiophen-2-ylethynyl)phenyl)butyl)-2-oxo-1,3,4-thiadiazinan-3-yl)ethyl)thiophene-2-carboxylic acid] | 80.2 ± 2.6 | 66.7 ± 2.7 | 0.13
O=C(O)c1ccc(CCN2C(=O)SCCN2CCC(O)Cc2cccc(C#Cc3ccccc3)c2)s1 (centres unmarked) [Example 15, 5-(2-(4-(3-Hydroxy-4-(3-(phenylethynyl)phenyl)butyl)-2-oxo-1,3,4-thiadiazinan-3-yl)ethyl)thiophene-2-carboxylic acid] | – | – | 0.63
O=C(O)c1ccc(CCN2C(=O)SCCN2CCC(O)Cc2cccc(C#Cc3ccsc3Cl)c2)s1 (centres unmarked) [Example 5, 5-(2-(4-(4-(3-((2-Chlorothiophen-3-yl)ethynyl)phenyl)-3-hydroxybutyl)-2-oxo-1,3,4-thiadiazinan-3-yl)ethyl)thiophene-2-carboxylic acid] | – | – | 0.3
O=C(O)c1ccc(CCN2C(=O)SCCN2CCC(O)Cc2cccc(C#Cc3cscc3-c3ccccc3)c2)s1 (centres unmarked) [Example 21, 5-(2-(4-(3-Hydroxy-4-(3-((4-phenylthiophen-3-yl)ethynyl)phenyl)butyl)-2-oxo-1,3,4-thiadiazinan-3-yl)ethyl)thiophene-2-carboxylic acid] | – | – | 0.5
O=C(O)c1ccc(CCN2C(=O)SCCN2CCC(O)Cc2cccc(Br)c2)cc1 (centres unmarked) [Comparative Example 1, 4-(2-(4-(4-(3-Bromophenyl)-3-hydroxybutyl)-2-oxo-1,3,4-thiadiazinan-3-yl)ethyl)benzoic acid, reference compound] | – | – | 2.5
COc1ccccc1C#Cc1cccc(CC(O)CCN2CCSC(=O)N2CCc2ccc(C(=O)O)s2)c1 (centres unmarked) [Example 16, 5-(2-(4-(3-Hydroxy-4-(3-((2-methoxyphenyl)ethynyl)phenyl)butyl)-2-oxo-1,3,4-thiadiazinan-3-yl)ethyl)thiophene-2-carboxylic acid] | – | – | 0.4
N#Cc1ccsc1C#Cc1cccc(CC(O)CCN2CCSC(=O)N2CCc2ccc(C(=O)O)s2)c1 (centres unmarked) [Example 14, 5-(2-(4-(4-(3-((3-Cyanothiophen-2-yl)ethynyl)phenyl)-3-hydroxybutyl)-2-oxo-1,3,4-thiadiazinan-3-yl)ethyl)thiophene-2-carboxylic acid] | – | – | 0.3
O=C(O)c1ccc(CCN2C(=O)SCCN2CCC(O)Cc2cccc(/C=C/c3ccsc3)c2)s1 (centres unmarked) [Example 27, (E)-5-(2-(4-(3-Hydroxy-4-(3-(2-(thiophen-3-yl)vinyl)phenyl)butyl)-2-oxo-1,3,4-thiadiazinan-3-yl)ethyl)thiophene-2-carboxylic acid] | – | – | 0.09
O=C(O)c1cc(Br)c(CCN2C(=O)SCCN2CCC(O)Cc2cccc(C#Cc3ccsc3)c2)s1 (centres unmarked) [Example 2, 4-Bromo-5-(2-(4-(3-hydroxy-4-(3-(thiophen-3-ylethynyl)phenyl)butyl)-2-oxo-1,3,4-thiadiazinan-3-yl)ethyl)thiophene-2-carboxylic acid] | – | – | 0.035
O=C(O)c1cc(Cl)c(CCN2C(=O)SCCN2CCC(O)Cc2cccc(C#Cc3ccccn3)c2)s1 (centres unmarked) [Example 28, 4-Chloro-5-(2-(4-(3-hydroxy-4-(3-(pyridin-2-ylethynyl)phenyl)butyl)-2-oxo-1,3,4-thiadiazinan-3-yl)ethyl)thiophene-2-carboxylic acid] | – | – | 0.087
O=C(O)c1ccc(CCN2C(=O)SCCN2CCC(O)Cc2cccc(C#Cc3cscn3)c2)s1 (centres unmarked) [Example 9, 5-(2-(4-(3-Hydroxy-4-(3-(thiazol-4-ylethynyl)phenyl)butyl)-2-oxo-1,3,4-thiadiazinan-3-yl)ethyl)thiophene-2-carboxylic acid] | – | – | 0.09
N#Cc1sccc1C#Cc1cccc(C[C@H](O)CCN2CCSC(=O)N2CCc2ccc(C(=O)O)s2)c1 [Example 24, (S)-5-(2-(4-(4-(3-((2-Cyanothiophen-3-yl)ethynyl)phenyl)-3-hydroxybutyl)-2-oxo-1,3,4-thiadiazinan-3-yl)ethyl)thiophene-2-carboxylic acid] | 80.7 ± 4.0 | – | –
N#Cc1cscc1C#Cc1cccc(CC(O)CCN2CCSC(=O)N2CCc2ccc(C(=O)O)s2)c1 (centres unmarked) [Example 7, 5-(2-(4-(4-(3-((4-Cyanothiophen-3-yl)ethynyl)phenyl)-3-hydroxybutyl)-2-oxo-1,3,4-thiadiazinan-3-yl)ethyl)thiophene-2-carboxylic acid] | – | – | 0.09
O=C(O)c1cc(Cl)c(CCN2C(=O)SCCN2CCC(O)Cc2cccc(C#Cc3ccsc3)c2)s1 (centres unmarked) [Example 17, 4-Chloro-5-(2-(4-(3-hydroxy-4-(3-(thiophen-3-ylethynyl)phenyl)butyl)-2-oxo-1,3,4-thiadiazinan-3-yl)ethyl)thiophene-2-carboxylic acid] | – | – | 0.026
O=C(O)c1ccc(CCN2C(=O)SCCN2CCC(O)Cc2cccc(C#Cc3nccs3)c2)s1 (centres unmarked) [Example 13, 5-(2-(4-(3-Hydroxy-4-(3-(thiazol-2-ylethynyl)phenyl)butyl)-2-oxo-1,3,4-thiadiazinan-3-yl)ethyl)thiophene-2-carboxylic acid] | 82.0 ± 3.4 | 65.5 ± 2.7 | 0.34
O=C(O)c1ccc(CCN2C(=O)SCCN2CCC(O)Cc2cccc(C#Cc3ccco3)c2)s1 (centres unmarked) [Example 11, 5-(2-(4-(4-(3-(Furan-2-ylethynyl)phenyl)-3-hydroxybutyl)-2-oxo-1,3,4-thiadiazinan-3-yl)ethyl)thiophene-2-carboxylic acid] | – | – | 0.09
N#Cc1sccc1C#Cc1cccc(CC(O)CCN2CCSC(=O)N2CCc2ccc(C(=O)O)s2)c1 (centres unmarked) [Example 8, 5-(2-(4-(4-(3-((2-Cyanothiophen-3-yl)ethynyl)phenyl)-3-hydroxybutyl)-2-oxo-1,3,4-thiadiazinan-3-yl)ethyl)thiophene-2-carboxylic acid] | 98.7 ± 4.1 | – | –
O=C(O)c1ccc(CCN2C(=O)SCCN2CCC(O)Cc2cccc(C#Cc3ccsc3)c2)s1 (centres unmarked) [Example 1, 5-(2-(4-(3-Hydroxy-4-(3-(thiophen-3-ylethynyl)phenyl)butyl)-2-oxo-1,3,4-thiadiazinan-3-yl)ethyl)thiophene-2-carboxylic acid] | – | – | 0.045
Cc1ccc(CC(O)CCN2CCSC(=O)N2CCc2ccc(C(=O)O)s2)cc1C#Cc1ccsc1 (centres unmarked) [Example 18, 5-(2-(4-(3-Hydroxy-4-(4-methyl-3-(thiophen-3-ylethynyl)phenyl)butyl)-2-oxo-1,3,4-thiadiazinan-3-yl)ethyl)thiophene-2-carboxylic acid] | – | – | 0.1
Cc1cscc1C#Cc1cccc(CC(O)CCN2CCSC(=O)N2CCc2ccc(C(=O)O)s2)c1 (centres unmarked) [Example 4, 5-(2-(4-(3-Hydroxy-4-(3-((4-methylthiophen-3-yl)ethynyl)phenyl)butyl)-2-oxo-1,3,4-thiadiazinan-3-yl)ethyl)thiophene-2-carboxylic acid] | – | – | 0.34
O=C(O)c1ccc(CCN2C(=O)OCCN2CCC(O)Cc2cccc(C#Cc3ccsc3)c2)s1 (centres unmarked) [Example 29, 5-(2-(4-(3-Hydroxy-4-(3-(thiophen-3-ylethynyl)phenyl)butyl)-2-oxo-1,3,4-oxadiazinan-3-yl)ethyl)thiophene-2-carboxylic acid] | – | – | 0.16
N#Cc1cc(C#Cc2cccc(CC(O)CCN3CCSC(=O)N3CCc3ccc(C(=O)O)s3)c2)cs1 (centres unmarked) [Example 12, 5-(2-(4-(4-(3-((5-Cyanothiophen-3-yl)ethynyl)phenyl)-3-hydroxybutyl)-2-oxo-1,3,4-thiadiazinan-3-yl)ethyl)thiophene-2-carboxylic acid] | – | – | 0.6
